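Dose response: 5 concentrations. Exposure: 48 h. Format: 96-well plates. Endpoint: linear interpolation; highest concentration if not reached. GI50: concentration for 50% inhibition of growth.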 The source made the active and inactive calls. No stated cut-off is given here; in the data, active = GI50 up to about 1.1 µM and inactive = higher.
Assays:
Experiment in all cases: DTP human tumour cell line panel, 48 h
[1] = test system: BT-549
[2] = test system: A549
[3] = test system: OVCAR-8
[4] = test system: OVCAR-4
[5] = test system: UO-31
[6] = test system: MCF7
[7] = test system: MDA-MB-231
[8] = test system: MDA-MB-435
[9] = test system: NCI-H460
[10] = test system: HOP-62
[11] = test system: IGROV-1
[12] = test system: CAKI-1
[13] = test system: HCT-15
[14] = test system: CCRF-CEM
[15] = test system: HOP-92
[16] = test system: HCT-116
[17] = test system: ACHN
[18] = test system: NCI-H23
[19] = test system: SF-539
[20] = test system: SW-620

Row | SMILES | GI50 [1] | GI50 [2] | GI50 [3] | GI50 [4] | GI50 [5] | GI50 [6] | GI50 [7] | GI50 [8] | GI50 [9] | GI50 [10] | GI50 [11] | GI50 [12] | GI50 [13] [µM] | GI50 [14] | GI50 [15] | GI50 [16] | GI50 [17] | GI50 [18] | GI50 [19] | GI50 [20]
1 | COc1cc(-c2oc(/C=N/c3ccccc3)c([N+](=O)[O-])c2-c2ccc(O)c(OC)c2)ccc1O | 29.6 µM (inactive) | 39.2 µM (inactive) | 17.3 µM (inactive) | 19.1 µM (inactive) | 15.1 µM (inactive) | 23.9 µM (inactive) | 27.5 µM (inactive) | 23.6 µM (inactive) | 16.1 µM (inactive) | 33.8 µM (inactive) | 15.4 µM (inactive) | 21.8 µM (inactive) | 14.4 | 6.31 µM (inactive) | 13.8 µM (inactive) | 18.4 µM (inactive) | 16.1 µM (inactive) | 16.3 µM (inactive) | 17.4 µM (inactive) | 22.9 µM (inactive)
2 | CC(C)(C)OC(=O)NCC(CNC(=O)OC(C)(C)C)c1nc(C(N)=O)cs1 | > 100 µM (inactive) | > 100 µM (inactive) | > 100 µM (inactive) | > 100 µM (inactive) | > 100 µM (inactive) | > 100 µM (inactive) | > 100 µM (inactive) | > 100 µM (inactive) | > 100 µM (inactive) | > 100 µM (inactive) | > 100 µM (inactive) | > 100 µM (inactive) | > 100 | > 100 µM (inactive) | > 100 µM (inactive) | > 100 µM (inactive) | > 100 µM (inactive) | > 100 µM (inactive) | > 100 µM (inactive) | > 100 µM (inactive)
3 | O=c1[nH]c2ccc(Cl)cc2o1 | > 100 µM (inactive) | > 100 µM (inactive) | > 100 µM (inactive) | > 100 µM (inactive) | > 100 µM (inactive) | > 100 µM (inactive) | > 100 µM (inactive) | > 100 µM (inactive) | > 100 µM (inactive) | > 100 µM (inactive) | > 100 µM (inactive) | > 100 µM (inactive) | > 100 | > 100 µM (inactive) | 17.5 µM (inactive) | > 100 µM (inactive) | > 100 µM (inactive) | > 100 µM (inactive) | > 100 µM (inactive) | > 100 µM (inactive)
4 | CC(Br)C(=O)Nc1ccc(C(=O)O)c(O)c1 (stereo not given) | 37.2 µM (inactive) | > 100 µM (inactive) | 52.8 µM (inactive) | 45.4 µM (inactive) | > 100 µM (inactive) | 83.4 µM (inactive) | 68.2 µM (inactive) | 34.4 µM (inactive) | > 100 µM (inactive) | 34.8 µM (inactive) | > 100 µM (inactive) | > 100 µM (inactive) | > 100 | 15.8 µM (inactive) | 65.6 µM (inactive) | 50.7 µM (inactive) | > 100 µM (inactive) | 27.4 µM (inactive) | 38.6 µM (inactive) | 60.8 µM (inactive)
5 | C=C(C)CCC(O)[C@](C)(O)[C@H]1[C@H](O)C[C@@]2(C)[C@@H]3CCc4c(cc(OC5OC(CO)C(O)C(O)C5O)c(O)c4C)C3(C)C(=O)C[C@]12C (stereo not given in full) | > 100 µM (inactive) | > 100 µM (inactive) | > 100 µM (inactive) | > 100 µM (inactive) | > 100 µM (inactive) | > 100 µM (inactive) | > 100 µM (inactive) | > 100 µM (inactive) | > 100 µM (inactive) | > 100 µM (inactive) | > 100 µM (inactive) | > 100 µM (inactive) | > 100 | > 100 µM (inactive) | > 100 µM (inactive) | > 100 µM (inactive) | > 100 µM (inactive) | > 100 µM (inactive) | > 100 µM (inactive) | > 100 µM (inactive)
6 | CC(O)C1(CNc2cc(Cl)nc(N)n2)CC(CCc2ccccc2)C1 (stereo not given) | 15.9 µM (inactive) | 10.6 µM (inactive) | 14.5 µM (inactive) | 10.2 µM (inactive) | 12.1 µM (inactive) | 0.108 µM (active) | 10.7 µM (inactive) | 13.7 µM (inactive) | 14 µM (inactive) | 14.1 µM (inactive) | 13.6 µM (inactive) | 11 µM (inactive) | 11.6 | 17.6 µM (inactive) | 12.2 µM (inactive) | 8.28 µM (inactive) | 9.73 µM (inactive) | 3.06 µM (inactive) | 16.6 µM (inactive) | 15.8 µM (inactive)
7 | N#C/C(=C/N1C(=O)/C(=C/c2ccc([N+](=O)[O-])cc2)SC1=S)c1nc2ccccc2s1 | 19.4 µM (inactive) | 25.6 µM (inactive) | 37.9 µM (inactive) | 29.7 µM (inactive) | 16.1 µM (inactive) | 15.6 µM (inactive) | 12.8 µM (inactive) | 29.5 µM (inactive) | 14.8 µM (inactive) | 0.406 µM (active) | 12.3 µM (inactive) | 30.8 µM (inactive) | 21.6 | 24.5 µM (inactive) | 17.5 µM (inactive) | 14.3 µM (inactive) | 17.3 µM (inactive) | 20.7 µM (inactive) | 28.9 µM (inactive) | 34.8 µM (inactive)
8 | O=C(Nc1ccc(Cl)c(Cl)c1)C(=O)C(C1OC(=O)c2ccccc21)[N+](=O)[O-] (stereo not given) | > 100 µM (inactive) | > 100 µM (inactive) | > 100 µM (inactive) | > 100 µM (inactive) | > 100 µM (inactive) | > 100 µM (inactive) | > 100 µM (inactive) | > 100 µM (inactive) | > 100 µM (inactive) | > 100 µM (inactive) | > 100 µM (inactive) | > 100 µM (inactive) | > 100 | > 100 µM (inactive) | 81.7 µM (inactive) | > 100 µM (inactive) | > 100 µM (inactive) | > 100 µM (inactive) | > 100 µM (inactive) | > 100 µM (inactive)
9 | OC(CC1CCCCN1)c1ccc2c(c1)oc1ccccc12 (stereo not given) | > 100 µM (inactive) | > 100 µM (inactive) | 84.1 µM (inactive) | 94.2 µM (inactive) | 37.2 µM (inactive) | 83 µM (inactive) | > 100 µM (inactive) | 42.7 µM (inactive) | 43.6 µM (inactive) | 91.2 µM (inactive) | 55.6 µM (inactive) | 52.8 µM (inactive) | 52.2 | 33.3 µM (inactive) | 48.3 µM (inactive) | 85.3 µM (inactive) | > 100 µM (inactive) | > 100 µM (inactive) | 46.1 µM (inactive) | > 100 µM (inactive)

From ChEMBL document CHEMBL1201862, “PubChem BioAssay data set” (2004)
